The results in this text go back to patent US20230086702A1, “SUBSTITUTED 2-AMINO-PYRAZOLYL-[1,2,4]TRIAZOLO[1,5A]PYRIDINE DERIVATIVES AND USE THEREOF” (The Johns Hopkins University, priority 2019, published 2023).

In one assay the target is T1, DLK (Homo sapiens, UniProt Q12852).
T1 construct: 10 nM DLK, catalytic domain, Carna Biosiences; purchased Carna Biosciences ('Carna Biosiences' [sic])
T1 sequence (Q12852 125-366 limits assumed): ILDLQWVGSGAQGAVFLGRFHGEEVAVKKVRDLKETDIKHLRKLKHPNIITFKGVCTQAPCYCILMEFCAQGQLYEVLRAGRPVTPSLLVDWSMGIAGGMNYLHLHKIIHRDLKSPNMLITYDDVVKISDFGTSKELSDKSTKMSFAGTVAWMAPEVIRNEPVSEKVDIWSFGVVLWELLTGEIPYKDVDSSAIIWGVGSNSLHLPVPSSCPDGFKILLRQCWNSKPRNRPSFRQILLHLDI
In words: DLK biochemical assay (TR-FRET, MKK7 phosphorylation). As to conditions: DLK catalytic domain, MKK7 substrate, 60 μM ATP. In short, it runs like this: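 Human DLK activity measured as phosphorylation of His-tagged MKK7 at T275/S277, detected by TR-FRET between Eu-anti-phospho-MKK7 donor (excitation 340 nm) and XL665-anti-His acceptor (665 nm). Signal taken as the XL665/Eu ratio. Detection buffer: 25 mM Tris/HCl pH 7.5, 100 mM EDTA, 100 mM NaCl, 200 mM KF, 0.01% Tween 20.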

Another assay addresses T2, LZK (Homo sapiens, UniProt O43283).
T2 construct: 10 nM LZK, catalytic domain, Carna Biosiences in assay buffer; purchased Carna Biosciences ('Carna Biosiences' [sic])
T2 sequence (O43283 168-409 limits assumed): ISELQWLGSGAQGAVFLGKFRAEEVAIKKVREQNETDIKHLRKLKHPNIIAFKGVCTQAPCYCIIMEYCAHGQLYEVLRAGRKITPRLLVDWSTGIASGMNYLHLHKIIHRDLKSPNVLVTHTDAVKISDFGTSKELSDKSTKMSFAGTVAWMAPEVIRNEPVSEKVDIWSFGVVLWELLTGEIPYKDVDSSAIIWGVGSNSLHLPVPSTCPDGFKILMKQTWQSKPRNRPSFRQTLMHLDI
The assay can be described thus: LZK biochemical assay (TR-FRET, MKK7 phosphorylation). As to conditions: LZK catalytic domain, MKK7 substrate, 15 μM ATP. (In general: Time-resolved FRET reads energy transfer from a long-lived donor to a nearby acceptor.)

Assay [1] relates to retinal ganglion cells (RGCs). In words: Optic nerve crush, RGC survival (RBPMS staining). It counts as in vivo, C57B6/J animals. The following applies: intravitreal injection of 8 mM, second injection 4 days later, two weeks after optic nerve crush, vs vehicle (FIG. 3). From the text: Inhibition of DLK and LZK can reduce the neuronal injury response and result in the protection of various neuronal populations from degeneration. Cells can be immunostained for p-cJun S73 (p-JUN), which is an indicator of DLK pathway activation. Accordingly, decreased p-JUN staining compared to a control can be indicative of inhibition of DLK pathway activation. RBPMS can be used to mark retinal ganglion cells (RGCs) and show changes in cell survival (e.g., increased RBPMS staining compared to a control can indicate increased cell survival).
Unilateral optic nerve crush was performed on C57B6/J animals between 6 and 8 weeks of age, followed by intravitreal injection of 8 mM of I-106. A second injection was performed 4 days later. Two weeks after optic nerve crush, animals were sacrificed and retinas were immunostained for RBPMS. Confocal microscopy was used to image RGCs and ImageJ was used to quantify the density of RGCs.
Mice were intravitreally injected with 1 μL of vehicle (DMSO), 100 mM I-81, or 300 mM I-81 immediately following optic nerve crush injury. Retinas were extracted 1 month later and immunofluorescently labelled with anti-RBPMS to mark RGCs, anti-phosphorylated JUN (P-JUN) to examine DLK/JNK pathway induction, and Tuj1 to visualize axons (see FIG. 9).

Each structure is given as a SMILES string.

Take `CC[C@H](C)NC(=O)c1cc(-c2cnn([C@H](c3ccc(C(F)(F)F)nc3)C(C)C)c2)cc2nc(N)nn12` (single isomer, unassigned) [Example I-106]: the IC50 (as a rule, the midpoint of a concentration-inhibition curve) came to 1 nM at DLK and 1.6 nM against LZK. The “survival of RGCs (density of RBPMS)” value in assay [1] was “promoted survival of RGCs following optic nerve crush”.

`CCC(c1ccc(OC(F)(F)F)nc1)n1cc(-c2cc(C(=O)NC(C)(C)CO)c3nc(N)nn3c2)cn1` (single isomer, unassigned) [Example I-171, 2-Amino-N-(1-hydroxy-2-methylpropan-2-yl)-6-(1-{1-[6-(trifluoromethoxy)pyridin-3-yl]propyl}-1H-pyrazol-4-yl)[1,2,4]triazolo[1,5-a]pyridine-8-carboxamide]: the figures for the IC50 against DLK and at LZK were 85 nM and 150 nM, respectively.

In the case of `CC[C@H](C)NC(=O)c1cc(-c2cnn(C(c3cncc(Cl)c3)C(C)C)c2)cn2nc(N)nc12` (single isomer, unassigned) [Example I-63], the IC50 amounted to 0.4 nM at DLK and 5.2 nM against LZK.

Consider `Nc1nc2c(C(=O)N[C@H]3CCOC3)cc(-c3cnn(Cc4cccc5cn[nH]c45)c3)cn2n1` (single isomer, unassigned) [Example I-175], for which the results for the IC50 against DLK and against LZK were 3.8 nM and 150 nM, respectively.

As to `CC[C@H](C)NC(=O)c1cc(-c2cnn(C(c3ccccc3)C3CCOCC3)c2)cc2nc(N)nn12` (single isomer, unassigned) [Example I-52], the IC50 at DLK was 0.7 nM; on LZK it was 5.6 nM.

On to `CC[C@H](C)NC(=O)c1cc(-c2cnn(C3CCOc4ccccc43)c2)cc2nc(N)nn12` (mixture of isomers) [Example I-16, 2-Amino-N-[(2S)-butan-2-yl]-7-[1-(3,4-dihydro-2H-chromen-4-yl)-1H-pyrazol-4-yl][1,2,4]triazolo[1,5-a]pyridine-5-carboxamide], for which the IC50 against DLK stood at 22 nM; on LZK, 3.3 nM.

In the case of `CC(CF)NC(=O)c1cc(-c2cnn(C3CCOc4ccccc43)c2)cn2nc(N)nc12` (mixture of isomers) [Example I-144, 2-Amino-6-{1-(3,4-dihydro-2H-1-benzopyran-4-yl)-1H-pyrazol-4-yl}-N-[1-fluoropropan-2-yl][1,2,4]triazolo[1,5-a]pyridine-8-carboxamide], the IC50 against DLK was 84 nM; against LZK, 79 nM.

For the compound `CCC(c1cncc(Cl)c1)n1cc(-c2cc(C(=O)N[C@@H](C)CC)c3nc(N)nn3c2)cn1` (single isomer, unassigned) [Example I-59], the results for the IC50 against DLK and at LZK were 20 nM and 58 nM, respectively.

For `CC[C@H](NC(=O)c1cc(-c2cnn(Cc3ccccc3)c2)cn2nc(N)nc12)C(F)(F)F` (single isomer, unassigned) [Example I-133], the figures for the IC50 against DLK and against LZK were 110 nM and 330 nM, respectively.

`CCC(c1ccc(F)cn1)n1cc(-c2cc(C(=O)N[C@@H](C)CC)c3nc(N)nn3c2)cn1` (single isomer, unassigned) [Example I-56]: the figures for the IC50 against DLK and against LZK were 2.7 nM and 19 nM, respectively.

Regarding `CCC(c1ccc(OCC(F)(F)F)nc1)n1cc(-c2cc(C(=O)N[C@@H](C)CC)c3nc(N)nn3c2)cn1` (single isomer, unassigned) [Example I-86], the IC50 turned out to be 100 nM against DLK and 160 nM against LZK.

`CC[C@H](C)NC(=O)c1cc(-c2cnn(C(c3ccnc(C(F)(F)F)c3)C(C)C)c2)cn2nc(N)nc12` (mixture of isomers) [Example I-91, 2-Amino-N-[(2S)-butan-2-yl]-6-(1-{2-methyl-1-[2-(trifluoromethyl)pyridin-4-yl]propyl}-1H-pyrazol-4-yl)[1,2,4]triazolo[1,5-a]pyridine-8-carboxamide]: the IC50 against DLK amounted to 2.9 nM; at LZK, 15 nM.

As for `CCC(c1ccc(C(F)(F)F)nc1)n1cc(-c2cc(C(=O)NC(C)CF)c3nc(N)nn3c2)cn1` (mixture of isomers) [Example I-147], the figures for the IC50 at DLK and against LZK were 3.9 nM and 25 nM, respectively.

`CCC(c1ccc(OC(F)(F)F)nc1)n1cc(-c2cc(C(=O)N[C@@H](C)CO)c3nc(N)nn3c2)cn1` (mixture of isomers) [Example I-157, 2-Amino-N-[(2S)-1-hydroxypropan-2-yl]-6-(1-{1-[6-(trifluoromethoxy)pyridin-3-yl]propyl}-1H-pyrazol-4-yl)[1,2,4]triazolo[1,5-a]pyridine-8-carboxamide]: the IC50 at DLK was found to be 5.7 nM; at LZK it was 13 nM.

Regarding `CCC(c1ccc(C(F)(F)F)nc1)n1cc(-c2cc(C(=O)N[C@@H](C)CO)c3nc(N)nn3c2)cn1` (single isomer, unassigned) [Example I-152], the IC50 on DLK amounted to 0.7 nM; at LZK, 3.9 nM.

For the compound `CC[C@H](C)NC(=O)c1cc(-c2cnn(C(COC)c3ccccc3)c2)cn2nc(N)nc12` (mixture of isomers) [Example I-40, 2-Amino-N-[(2S)-butan-2-yl]-6-[1-(2-methoxy-1-phenylethyl)-1H-pyrazol-4-yl][1,2,4]triazolo[1,5-a]pyridine-8-carboxamide], the IC50 at DLK came to 4.5 nM; on LZK, 67 nM.

With `CC[C@@H](c1ccc(F)cc1)n1cc(-c2cc(C(=O)NC(C)CF)n3nc(N)nc3c2)cn1` (mixture of isomers) [Example I-148, 2-Amino-7-{1-[(1S)-1-(4-fluorophenyl)propyl]-1H-pyrazol-4-yl}-N-(1-fluoropropan-2-yl)[1,2,4]triazolo[1,5-a]pyridine-5-carboxamide], the IC50 at DLK was 1.6 nM; against LZK, 32 nM.

On to `CCC(c1ccc(N2CCOCC2)cc1)n1cc(-c2cc(C(=O)N[C@@H](C)CC)c3nc(N)nn3c2)cn1` (mixture of isomers) [Example I-47, 2-Amino-N-[(2S)-butan-2-yl]-6-(1-{1-[4-(morpholin-4-yl)phenyl]propyl}-1H-pyrazol-4-yl)[1,2,4]triazolo[1,5-a]pyridine-8-carboxamide], for which the IC50 against DLK turned out to be 3.8 nM; against LZK, 40 nM.

Turning to `CC[C@H](C)NC(=O)c1cc(-c2cnn(C(c3ccc(C(F)F)nc3)C(C)C)c2)cn2nc(N)nc12` (mixture of isomers) [Example I-67, 2-Amino-N-[(2S)-butan-2-yl]-6-(1-{1-[6-(difluoromethyl)pyridin-3-yl]-2-methylpropyl}-1H-pyrazol-4-yl)[1,2,4]triazolo[1,5-a]pyridine-8-carboxamide], the IC50 against DLK was 1.1 nM; against LZK, 5.6 nM.

`CC[C@H](C)NC(=O)c1cc(-c2cnn(C(c3ccnc(OC)c3)C(C)C)c2)cc2nc(N)nn12` (single isomer, unassigned) [Example I-127]: the IC50 on DLK was determined as 17 nM; against LZK, 52 nM.

For the compound `CCC(c1ccc(OCC(F)(F)F)nc1)n1cc(-c2cc(C(=O)N[C@@H](C)CC)n3nc(N)nc3c2)cn1` (single isomer, unassigned) [Example I-115], the values for the IC50 at DLK and against LZK were 4.2 nM and 20 nM, respectively.

On to `CCC(c1ccc(C(F)(F)F)nc1)n1cc(-c2cc(C(=O)N[C@@H](C)CC)n3nc(N)nc3c2)cn1` (mixture of isomers) [Example I-101, 2-Amino-N-[(2S)-butan-2-yl]-7-(1-{1-[6-(trifluoromethyl)pyridin-3-yl]propyl}-1H-pyrazol-4-yl)[1,2,4]triazolo[1,5-a]pyridine-5-carboxamide], for which the IC50 on DLK turned out to be 1.2 nM; against LZK it was 2.8 nM.

Consider `CC[C@H](C)NC(=O)c1cc(-c2cnn(C3CCN(CC)CC3)c2)cn2nc(N)nc12` (single isomer, unassigned) [Example I-6], for which the figures for the IC50 against DLK and at LZK were 17 nM and 6.7 nM, respectively.
